Converted amounts (≈) assume the structure as drawn.
Experiments:
Peptide deformylase [1] = biological target: T1, Peptide deformylase (Escherichia coli, UniProt Q9JN24); test: Inhibition of NiCl2 stabilized Escherichia coli NCIM-2931 peptide deformylase using N-formyl-Met-Ala as substrate incubated for 30 mins by spectrophotometric method
T1 sequence (Q9JN24 whole entry): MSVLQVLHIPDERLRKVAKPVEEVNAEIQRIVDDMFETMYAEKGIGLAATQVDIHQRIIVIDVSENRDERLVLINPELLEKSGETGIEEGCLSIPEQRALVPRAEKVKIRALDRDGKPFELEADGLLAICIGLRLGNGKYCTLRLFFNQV

Escherichia coli = test: Antibacterial activity against Escherichia coli NCIM-2256 after 24 hrs by two fold serial dilution method; format: functional; conditions: NCIM-2256, 24 h
Bacillus subtilis = test: Antibacterial activity against Bacillus subtilis NCIM-2063 after 24 hrs by two fold serial dilution method; format: functional; conditions: NCIM-2063, 24 h
Peptide deformylase [2] = biological target: T1, Peptide deformylase; test: Inhibition of Escherichia coli peptide deformylase

IC50 (Peptide deformylase [2]) [µM]	SMILES	IC50 (Peptide deformylase [1]) [µM]	MIC (Escherichia coli) [µg/mL]	MIC (Bacillus subtilis) [µg/mL]
–	N#Cc1ccccc1-c1ccc(CNc2cnccn2)cc1	19.2	16.9 (≈ 59.1 µM)	7.66 (≈ 26.8 µM)
–	N#Cc1ccccc1-c1ccc(CNc2cccc(C(F)(F)F)c2)cc1	20.9	42.5 (≈ 121 µM)	25.8 (≈ 73.3 µM)
–	N#Cc1ccccc1-c1ccc(CNc2ccc(O)cc2)cc1	34.6	33.6 (≈ 112 µM)	28.3 (≈ 94.3 µM)
–	N#Cc1ccccc1-c1ccc(CNc2cccc([N+](=O)[O-])c2)cc1	25	40.9 (≈ 124 µM)	29.3 (≈ 89.1 µM)
–	N#Cc1ccccc1-c1ccc(CNc2ccc(C(F)(F)F)cc2)cc1	33.5	35.5 (≈ 101 µM)	34.4 (≈ 97.7 µM)
–	N#Cc1ccccc1-c1ccc(CNc2ccccc2O)cc1	33	39.6 (≈ 132 µM)	29.3 (≈ 97.6 µM)
–	N#Cc1ccccc1-c1ccc(CNn2cnnc2)cc1	50.7	36.5 (≈ 133 µM)	23.8 (≈ 86.3 µM)
3.9	CCCc1nc2ccc(Cl)cc2n1Cc1ccc(-c2ccccc2-c2nnn[nH]2)cc1	–	–	–
–	N#Cc1ccccc1-c1ccc(CNc2ccc(C(=O)O)cc2)cc1	51.2	32.6 (≈ 99.2 µM)	26.8 (≈ 81.5 µM)
–	O=C(O)c1cn(C2CC2)c2cc(N3CCNCC3)c(F)cc2c1=O [CIPROFLOXACIN]	–	25 (≈ 75.4 µM)	–
–	N#Cc1ccccc1-c1ccc(CNc2ccc(N3CCOCC3)c(F)c2)cc1	42.5	37.3 (≈ 96.3 µM)	21.6 (≈ 55.7 µM)
–	N#Cc1ccccc1-c1ccc(CNc2ccc(Cl)cc2[N+](=O)[O-])cc1	28.3	45.6 (≈ 125 µM)	27.2 (≈ 74.7 µM)
22.8	CCCC1=NC2C(C)=CC(C)=NN2C1Cc1ccc(-c2ccccc2C(=O)O)cc1 (configuration not stated)	–	–	–
–	N#Cc1ccccc1-c1ccc(CNc2ccccc2[N+](=O)[O-])cc1	15.7	28.5 (≈ 86.5 µM)	23.8 (≈ 72.1 µM)
–	N#Cc1ccccc1-c1ccc(CNc2ccccc2)cc1	13.2	15.8 (≈ 55.7 µM)	11 (≈ 38.7 µM)
–	COc1ccc2nc(NCc3ccc(-c4ccccc4C#N)cc3)sc2c1	27.8	35.2 (≈ 94.9 µM)	36.2 (≈ 97.6 µM)

From ChEMBL document CHEMBL3813657, “Bacterial Peptide deformylase inhibition of cyano substituted biaryl analogs: Synthesis, in vitro biological evaluation, molecular docking study and in silico ADME prediction” (Bioorg Med Chem, 2016)
